Measurements: ChEMBL document CHEMBL1125860 (J Med Chem, 1991)
Each block holds one compound with its values, some of them ahead of it. Calls of active or inactive are those of the source. The calls are words filed in the database; no cut-off is given here.

Assays:
[1] = biological target: Aldo-keto reductase family 1 member B1 (Bos taurus, UniProt P16116); experiment: In vitro Inhibition of aldose reductase was measured in isolated partially purified bovine lens preparations at 10e-7 M concentration
Rattus norvegicus [2] = species: Rattus norvegicus; experiment: (§1) In vitro inhibition of sorbitol accumulation was measured in rat sciatic nerves incubated in the presence of 50 mM glucose at 10e-5 M concentration; assay type: functional; conditions: Sciatic nerve
Rattus norvegicus [3] = species: Rattus norvegicus; experiment: (§2) In vitro inhibition of sorbitol accumulation was measured in rat sciatic nerves incubated in the presence of 50 mM glucose at 10e-6 M concentration; assay type: functional; conditions: Sciatic nerve
Rattus norvegicus [4] = experiment: Effective dose of aldose reductase was evaluated by measuring galactitol accumulation in sciatic nerves of rat at 5 mg/kg/day; assay type: functional; conditions: Sciatic nerve
Rattus norvegicus [5] = experiment: In vivo inhibition of galactitol accumulation in diaphragm of rat at 5 mg/kg/day; assay type: functional
Rattus norvegicus [6] = species: Rattus norvegicus; experiment: % inhibition of aldose reductase was measured in rat serbital sciatic nerves incubated in the presence of 50 mM glucose at 10e-6 M concentration; assay type: functional, Sciatic nerve
Rattus norvegicus [7] = experiment: In vivo inhibition of galactitol accumulation in sciatic nerves of rat at 5 mg/kg/day; assay type: functional; conditions: Sciatic nerve
Rattus norvegicus [8] = species: Rattus norvegicus; experiment: as §1; assay type: functional, Sciatic nerve
Rattus norvegicus [9] = species: Rattus norvegicus; experiment: Inhibition of galactitol accumulation in rat RBC incubated in presence of 50 mM glucose; assay type: functional, organism-based
Rattus norvegicus [10] = species: Rattus norvegicus; experiment: Inhibition of galactitol accumulation in rat lens incubated in presence of 50 mM glucose; assay type: functional, organism-based; conditions: Lens of camera-type eye
Rattus norvegicus [11] = species: Rattus norvegicus; experiment: Inhibition of galactitol accumulation in sciatic nerves of rat incubated in presence of 50 mM glucose.; assay type: functional, organism-based; conditions: Sciatic nerve
Rattus norvegicus [12] = experiment: In vivo inhibition of galactitol accumulation in diaphragm of rat at 6 mg/kg/day; assay type: functional
Rattus norvegicus [13] = species: Rattus norvegicus; experiment: inhibition of aldose reductase activity was measured by measuring […] in the RBC of galactose fed rat.; assay type: functional
Rattus norvegicus [14] = species: Rattus norvegicus; experiment: inhibition of aldose reductase activity was measured by measuring […] in the sciatic nerves of galactose fed rat.; assay type: functional; conditions: Sciatic nerve
Rattus norvegicus [15] = species: Rattus norvegicus; experiment: inhibition of aldose reductase activity was measured by measuring sorbitor accumulation in the sciatic nerves of STZ diabetic rat.; assay type: functional; conditions: Sciatic nerve
Rattus norvegicus [16] = experiment: In vivo inhibition of galactitol accumulation in sciatic nerves of rat at 6 mg/kg/day; assay type: functional; conditions: Sciatic nerve
Rattus norvegicus [17] = species: Rattus norvegicus; experiment: as §2; assay type: functional, Sciatic nerve
[18] = biological target: Aldo-keto reductase family 1 member B1 (Bos taurus) (UniProt P16116); experiment: In vitro % decrease of aldose reductase measured in isolated partially purified bovine lens preparations at 10e-7 M concentration
Rattus norvegicus [19] = experiment: In vivo inhibition of galactitol accumulation in diaphragm of rat at 28 mg/kg/day; assay type: functional
Rattus norvegicus [20] = experiment: In vivo inhibition of galactitol accumulation in sciatic nerves of rat at 28 mg/kg/day; assay type: functional; conditions: Sciatic nerve
Rattus norvegicus [21] = experiment: In vivo inhibition of galactitol accumulation in sciatic nerves of rat at 144 mg/kg/day; assay type: functional; conditions: Sciatic nerve
Rattus norvegicus [22] = experiment: In vivo inhibition of galactitol accumulation in diaphragm of rat at 144 mg/kg/day; assay type: functional
Rattus norvegicus [23] = experiment: In vivo inhibition of galactitol accumulation in sciatic nerves of rat at 16 mg/kg/day; assay type: functional; conditions: Sciatic nerve
Rattus norvegicus [24] = experiment: In vivo inhibition of galactitol accumulation in sciatic nerves of rat at 20 mg/kg/day; assay type: functional; conditions: Sciatic nerve
Rattus norvegicus [25] = experiment: In vivo inhibition of galactitol accumulation in diaphragm of rat at 20 mg/kg/day; assay type: functional
Rattus norvegicus [26] = experiment: In vivo inhibition of galactitol accumulation in diaphragm of rat at 53 mg/kg/day; Not significant; assay type: functional, organism-based
Rattus norvegicus [27] = experiment: In vivo inhibition of galactitol accumulation in sciatic nerves of rat at 53 mg/kg/day; Not significant; assay type: functional, organism-based; conditions: Sciatic nerve
Rattus norvegicus [28] = experiment: In vivo inhibition of galactitol accumulation in sciatic nerves of rat at 24 mg/kg/day; assay type: functional; conditions: Sciatic nerve
Rattus norvegicus [29] = experiment: In vivo inhibition of galactitol accumulation in diaphragm of rat at 24 mg/kg/day; assay type: functional
Rattus norvegicus [30] = experiment: In vivo inhibition of galactitol accumulation in sciatic nerves of rat at 50 mg/kg/day; assay type: functional; conditions: Sciatic nerve
Rattus norvegicus [31] = experiment: In vivo inhibition of galactitol accumulation in diaphragm of rat at 50 mg/kg; assay type: functional
Rattus norvegicus [32] = experiment: In vivo inhibition of galactitol accumulation in sciatic nerves of rat at 114 mg/kg/day; Not significant; assay type: functional, organism-based; conditions: Sciatic nerve
Rattus norvegicus [33] = experiment: In vivo inhibition of galactitol accumulation in diaphragm of rat at 114 mg/kg/day; Not significant; assay type: functional, organism-based
[34] = biological target: Aldo-keto reductase family 1 member B1 (Bos taurus) (UniProt P16116); experiment: In vitro % decrease of aldose reductase was measured in isolated partially purified bovine lens preparations at 10e-7 M concentration; Not active
Rattus norvegicus [35] = experiment: In vivo inhibition of galactitol accumulation in sciatic nerves of rat at 14 mg/kg/day; assay type: functional; conditions: Sciatic nerve
Rattus norvegicus [36] = experiment: In vivo inhibition of galactitol accumulation in diaphragm of rat at 27 mg/kg/day; assay type: functional
Rattus norvegicus [37] = experiment: In vivo inhibition of galactitol accumulation in sciatic nerves of rat at 27 mg/kg/day; assay type: functional; conditions: Sciatic nerve
Rattus norvegicus [38] = experiment: In vivo inhibition of galactitol accumulation in diaphragm of rat at 14 mg/kg/day; assay type: functional
Rattus norvegicus [39] = experiment: In vivo inhibition of galactitol accumulation in sciatic nerves of rat at 133 mg/kg/day; assay type: functional; conditions: Sciatic nerve
Rattus norvegicus [40] = experiment: In vivo inhibition of galactitol accumulation in diaphragm of rat at 133 mg/kg/day; assay type: functional

inhibition [18]: 87%
Compound: CCOc1ccc2c(C(F)(F)F)c(OC)ccc2c1C(=S)N(C)CC(=O)O
inhibition in vivo at 28 mg/kg/day (Rattus norvegicus [19]): 85% | inhibition in vivo at 28 mg/kg/day (Rattus norvegicus [20]): 46%

inhibition [18]: 80%
Compound: COc1ccc2c(C(=O)N(C)CC(=O)O)c(F)ccc2c1C(F)(F)F
inhibition in vivo at 16 mg/kg/day (Rattus norvegicus [23]): 45% | inhibition in vivo at 20 mg/kg/day (Rattus norvegicus [24]): 62% | inhibition in vivo at 20 mg/kg/day (Rattus norvegicus [25]): 72% | Inhibition (Rattus norvegicus [8]): 66% | Inhibition (Rattus norvegicus [17]): 41%

inhibition [18]: 62%
Compound: COc1ccc2c(C(F)(F)F)c(OC)ccc2c1C(=O)N(C)CC(=O)O
inhibition (Rattus norvegicus [26]): inactive | inhibition (Rattus norvegicus [27]): inactive | Inhibition (Rattus norvegicus [8]): 48% | Inhibition (Rattus norvegicus [17]): 33%

inhibition [18]: 67%
Compound: COc1ccc2c(C(=O)N(C)CC(=O)O)c(OCC(F)(F)F)ccc2c1C(F)(F)F
inhibition in vivo at 24 mg/kg/day (Rattus norvegicus [28]): 37% | inhibition in vivo at 24 mg/kg/day (Rattus norvegicus [29]): 65% | inhibition in vivo at 50 mg/kg/day (Rattus norvegicus [30]): 79% | Inhibition (Rattus norvegicus [8]): 57% | Inhibition (Rattus norvegicus [17]): 31% | inhibition in vivo at 50 mg/kg (Rattus norvegicus [31]): 82%

Second part, the compound before the results:

Compound: O=C(O)Cc1nn(Cc2ccc(Br)cc2F)c(=O)c2ccccc12 [PONALRESTAT]
IC50 [1]: 37 nM | IC50 (Rattus norvegicus [2]): 1400 nM | IC50 (Rattus norvegicus [3]): 37 nM | ED50 (Rattus norvegicus [4]): 4 mg/kg | inhibition in vivo at 5 mg/kg/day (Rattus norvegicus [5]): 63% | Inhibition (Rattus norvegicus [6]): 35% | inhibition in vivo at 5 mg/kg/day (Rattus norvegicus [7]): 61% | Inhibition (Rattus norvegicus [8]): 100%

Compound: COc1ccc2c(C(=S)N(C)CC(=O)O)cccc2c1C(F)(F)F [TOLRESTAT]
IC50 (Rattus norvegicus [9]): 15 nM | IC50 (Rattus norvegicus [10]): 1000 nM | IC50 (Rattus norvegicus [11]): 540 nM | inhibition in vivo at 6 mg/kg/day (Rattus norvegicus [12]): 80% | ED50 (Rattus norvegicus [13]): < 2 mg/kg | ED50 (Rattus norvegicus [14]): 6.4 mg/kg | ED50 (Rattus norvegicus [15]): 4.8 mg/kg | inhibition in vivo at 6 mg/kg/day (Rattus norvegicus [16]): 53% | Inhibition (Rattus norvegicus [8]): 82% | Inhibition (Rattus norvegicus [17]): 61%

Compound: COc1ccc2c(C(=S)N(C)CC(=O)O)cc(Cc3ccccc3)cc2c1Br
inhibition [18]: 84% | inhibition in vivo at 144 mg/kg/day (Rattus norvegicus [21]): 46% | inhibition in vivo at 144 mg/kg/day (Rattus norvegicus [22]): 84% | Inhibition (Rattus norvegicus [8]): 78% | Inhibition (Rattus norvegicus [17]): 48%

Compound: COc1ccc2c(C(=O)N(C)CC(=O)O)cc(C)cc2c1Br
inhibition [18]: 63% | inhibition (Rattus norvegicus [32]): inactive | inhibition (Rattus norvegicus [33]): inactive | Inhibition (Rattus norvegicus [8]): 52% | Inhibition (Rattus norvegicus [17]): 20%

Compound: COc1ccc2c(C(=O)N(C)CC(N)=O)ccc(F)c2c1C(F)(F)F
inhibition [34]: inactive | inhibition in vivo at 14 mg/kg/day (Rattus norvegicus [35]): 72% | inhibition in vivo at 27 mg/kg/day (Rattus norvegicus [36]): 31% | inhibition in vivo at 27 mg/kg/day (Rattus norvegicus [37]): 56% | inhibition in vivo at 14 mg/kg/day (Rattus norvegicus [38]): 74%

Compound: COc1ccc2c(C(=S)N(C)CC(=O)O)cc(-c3ccccc3)cc2c1Br
inhibition [18]: 81% | inhibition in vivo at 133 mg/kg/day (Rattus norvegicus [39]): 58% | inhibition in vivo at 133 mg/kg/day (Rattus norvegicus [40]): 85% | Inhibition (Rattus norvegicus [8]): 68% | Inhibition (Rattus norvegicus [17]): 30%
